The values below are quoted from earlier work in US7374920B2, “Ginkgo biloba levopimaradiene synthase” (priority 2001, dated 2008).

The test system of one data set is insect larvae. As to conditions: Schwarz, M., 1994; Matsumoto, et al., 1987; cited from earlier work.
The target of data set [1] is platelet-activating factor (PAF) receptor (Homo sapiens, UniProt P25105). Conditions: compared with the other ginkgolide diterpenes; cited from earlier work.
platelet-activating factor (PAF) receptor, sequence (P25105 whole entry): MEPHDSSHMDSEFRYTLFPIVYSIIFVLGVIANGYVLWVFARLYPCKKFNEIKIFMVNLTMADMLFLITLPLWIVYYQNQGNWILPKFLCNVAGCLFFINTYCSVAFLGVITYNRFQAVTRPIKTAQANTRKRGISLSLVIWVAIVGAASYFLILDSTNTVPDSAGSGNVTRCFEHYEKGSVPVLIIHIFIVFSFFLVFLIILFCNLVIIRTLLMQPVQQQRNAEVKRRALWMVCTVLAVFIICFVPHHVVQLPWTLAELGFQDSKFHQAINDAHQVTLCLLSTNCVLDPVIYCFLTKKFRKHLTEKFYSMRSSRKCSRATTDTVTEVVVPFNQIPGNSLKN

Consider `CC(C)(C)[C@]1(O)CC2OC(=O)CC23C(=O)OC2OC(=O)[C@H](O)C231` (some centres unmarked) [bilobalide], for which, in the data set on insect larvae, the antifeedant activity entry is on record as “significant antifeedant activities toward insect larvae”.

As to `CC1C(=O)OC2C(O)C34C5CC(C(C)(C)C)C36C(OC(=O)C6O)OC4(C(=O)O5)C12O` (centres unmarked) [ginkgolide B], in data set [1], the PAF antagonist activity entry is listed as “highest activity of the diterpenes”.
